# Like-named read-outs stand apart in the source and are kept apart here.
# Tests used:
# [1] = test system: gastric secretion; test: gastric secretory depressant test in the unanesthetized rat with acute gastric fistula (acid concentration, acid output, pH); assay type: in vivo; conditions: for % Inhibition, acid concentration (S.E.M.) / % Inhibition, acid output (S.E.M.): 10 μg/kg b.w. I.G.
# Protocol: were tested as gastric secretory depressants in the unanesthesized rat with acute gastric fistula by the following procedure:
# During this baseline period, the pH of the secretory flow was about 1.5 for each animal. Individual samples were collected at 10-minute intervals during this baseline period to monitor the pH. The compounds dissolved in polyethylene glycol-400 were administered intragastrically (I.G.) after this baseline period and samples were continuously collected for up to 180 minutes. The samples of gastric contents were subsequently assayed for volume, total acid concentration (μEq/ml) and total acid output for 10 minutes (μEq/10 minutes).
# In addition to intragastric (I.G.) dosages, the activity of these compounds was tested for intraduodenal (I.D.) and intravenous administration (I.V.) to unanesthetized rats with acute gastric fistula as described above. For I.D. administration, the compounds were dissolved in polyethylene glycol-400. On the other hand, a trimethylolnitro-methane/ethanol solution was used for I.V. dosing. […] With this dose and route of administration of Compound A, a pronounced effect on pH was seen, an average increase of 3.1 pH units over 3 hours post administration. With the I.G. dose of Compound A of 5 μg/Kg b.w., an average increase of 1.6 pH units occurred. […] The antisecretory effect of Compound A seen after I.V. administration (10 μg/Kg b.w.) was low, amounting to about 1/4 to 1/5 that seen following I.G. dosage of Compound A. With the I.V. route of administration at this dose of Compound A (10 μg/Kg b.w.) effect on pH was minimal, 1/10 to 1/20 that seen after I.G. administration of an identical dose of Compound A.
# [2] = test system: acid secretion; test: acid secretion in three conscious dog models (Heidenhain pouches, Pavlov pouches or gastric fistulae); assay type: in vivo
# Description: These models consisted of concious dogs prepared with Heidenhain pouches, Pavlov pouches or gastric fistulae.
# [3] = test system: gastric secretion stimulated by histamine; test: Heidenhain pouch dog test, histamine-stimulated gastric secretion; assay type: in vivo, dog (mongrel)
# Protocol: Compound A was next tested at a dose level which would cause a definite and reproducible pharmacological effect.
# The Heindenhain pouch test involved collecting gastric juice from the denervated (Heidenhain) gastric pouches of mongrel dogs. This collection was accomplished by gravity drainage, using a specially manufactured titanium cannula. Gastric secretion was stimulated by intravenous infusion of a saline solution of histamine hydrochloride, 20 μg/kg/hr, injected at a rate of 1 ml/min. This submaximal stimulation elicited acid secretion approximately 30% of maximal, without the tachycardia commonly observed with higher doses of histamine. Samples of gastric juice were collected at 15-min intervals. Compound A was administered orally via a 1/4 oz. hard gelatin capsule. The animals were dosed 90 min after the start of histamine infusion and the test continued for 9 hours post-drug administration. The dogs were concious and stood quietly in Pavlov slings during the experiments. Sample volume was measured, and pH, acid concentration (mEq/L), acid output (mEq/15-min periods), as well as pepsin concentration and output were determined. Vital signs were monitored throughout the test and kennel observations continued for 24 hr.
# The indexes chosen to assess drug efficacy were acid concentration and acid output. These parameters were expressed as a percentage of the average of the three 15-min values prior to dosage. […] […] Values of pH increased from a control average of 1.0 to a maximum of 2.0 six hours post drug. Analysis of control data for this group of Heindenhain-pouch dogs indicated no significant decrease in gastric juice volumes from control levels during these extended studies. In these control animals, pH values averaged 0.9 throughout the entire experiment. Therefore, no significant decreases in acid concentration or output would be expected in the control results.
# [4] = test system: gastric microbleeding induced by aspirin; assay type: in vivo, rat; conditions: for blood lost after Compound A in combination with aspirin: intragastric, one hour
# Description: To study the effects of Compound A on gastric microbleeding induced by aspirin, a technique was developed based on that used by Menasse-Gdynia and Krupp, Toxicol, Appl. Pharmacol. 29, 389-396. The technique involves the microsurgical preparation of rats so as to isolate the stomach in an accessible, perfused system and the utilization of chromium-51-labelled red blood cells (^51 Cr-RBC) as a convenient handle for the assessment of bleeding from drug-induced gastric microlesions.
# Rats were microsurgically implanted with a cannula in the vena cava (for the injection of ^51 Cr-RBC), a cannula in the forestomach (for constant infusion of tap water) and a cannula in the duodenum at the pyloric sphincter (for collection ot total gastric effluent). After a 30 min wash with tap water infused at 5.5 m/hr, each animal was administered either aspirin (100 mg/kg) or aspirin in combination with Compound A. Ease dose was administered intragastrically in 1 ml 40% polyethylene glycol (having molecular weight of 400) vehicle and allowed to remain in the stomach for 15 min. Simultaneously 0.9 ml ^51 Cr-RBC (3×10^6) was administered through the vena cava. Gastric effluent was collected every 5 min for a total of […]. Radioactivity was determined in a gamma counter. The results are expressed as microliters of whole blood lost during the 60 min experiments, based on the following formula: [formula]
# [5] = 20 minutes after administration
# [6] = 30 minutes after administration
# [7] = 40 minutes after administration
# [8] = 50 minutes after administration
# [9] = 60 minutes after administration
# [10] = 70 minutes after administration
# [11] = 80 minutes after administration
# [12] = 90 minutes after administration
# [13] = 100 minutes after administration
# [14] = 110 minutes after administration
# [15] = 120 minutes after administration
# [16] = 130 minutes after administration
# [17] = 140 minutes after administration
# [18] = 150 minutes after administration
# [19] = 160 minutes after administration
# [20] = 170 minutes after administration
# [21] = 180 minutes after administration
# [22] = Compound A 10 μg/kg + aspirin 100 mg/kg
smiles,measurement,setting,value
"CCCCC(C)(C)[C@@H](/C=C/C1[C@H](C)CC(=O)[C@@H]1C/C=C\CCCC(=O)O)OC(C)=O (stereo in doubt) [Compound A, (8R,11R,12S,15R,5Z,13E)-15-acetyloxy-11,16,16-trimethyl-9-oxoprosta-5,13-dien-1-oic acid]",duration of action,[1]; 5 μg/Kg I.G.,110 min
same,response in pH relative to that seen with the 10 μg/Kg b.w. dose of Compound A,[1]; 5 μg/Kg I.G. vs 10 μg/Kg I.G.,about 50%
same,average increase of pH,[1]; 5 μg/Kg b.w. I.G.,1.6 pH units
same,effect on pH compared with 10 μg/Kg I.G. of Compound B,[1]; 5 μg/Kg b.w. I.G.,essentially equivalent to that of the 10 μg/Kg I.G. of Compound B
same,duration of action,[1]; 10 μg/Kg I.G.,180 min
same,effect on acid concentration and output compared with I.G. dosage,[1]; 10 μg/Kg b.w. I.D.,no different to the I.G. dosage of Compound A
same,effect on pH compared with I.G. route,[1]; 10 μg/Kg b.w. I.D.,much lower than by the I.G. route
same,average increase of pH,"[1]; 10 μg/Kg b.w. I.G. (printed 10 g/Kg), over 3 hours post administration",3.1 pH units
same,antisecretory effect,[1]; 10 μg/Kg b.w. I.V.,low
same,effect on pH,[1]; 10 μg/Kg b.w. I.V.,minimal
same,"% Inhibition, acid concentration (S.E.M.)",[1]; [5],34 (16) %
same,"% Inhibition, acid output (S.E.M.)",[1]; [5],39 (14) %
same,"% Inhibition, acid concentration (S.E.M.)",[1]; [6],91 (9) %
same,"% Inhibition, acid output (S.E.M.)",[1]; [6],91 (9) %
same,"% Inhibition, acid concentration (S.E.M.)",[1]; [7],70 (14) %
same,"% Inhibition, acid output (S.E.M.)",[1]; [7],69 (17) %
same,"% Inhibition, acid concentration (S.E.M.)",[1]; [8],50 (17) %
same,"% Inhibition, acid output (S.E.M.)",[1]; [8],43 (20) %
same,"% Inhibition, acid concentration (S.E.M.)",[1]; [9],67 (21) %
same,"% Inhibition, acid output (S.E.M.)",[1]; [9],73 (17) %
same,"% Inhibition, acid concentration (S.E.M.)",[1]; [10],67 (21) %
same,"% Inhibition, acid output (S.E.M.)",[1]; [10],74 (17) %
same,"% Inhibition, acid concentration (S.E.M.)",[1]; [11],67 (21) %
same,"% Inhibition, acid output (S.E.M.)",[1]; [11],79 (16) %
same,"% Inhibition, acid concentration (S.E.M.)",[1]; [12],80 (20) %
same,"% Inhibition, acid output (S.E.M.)",[1]; [12],80 (20) %
same,"% Inhibition, acid concentration (S.E.M.)",[1]; [13],67 (20) %
same,"% Inhibition, acid output (S.E.M.)",[1]; [13],60 (25) %
same,"% Inhibition, acid concentration (S.E.M.)",[1]; [14],60 (24) %
same,"% Inhibition, acid output (S.E.M.)",[1]; [14],68 (20) %
same,"% Inhibition, acid concentration (S.E.M.)",[1]; [15],67 (20) %
same,"% Inhibition, acid output (S.E.M.)",[1]; [15],72 (20) %
same,"% Inhibition, acid concentration (S.E.M.)",[1]; [16],80 (19) %
same,"% Inhibition, acid output (S.E.M.)",[1]; [16],80 (20) %
same,"% Inhibition, acid concentration (S.E.M.)",[1]; [17],100 (0) %
same,"% Inhibition, acid output (S.E.M.)",[1]; [17],100 (0) %
same,"% Inhibition, acid concentration (S.E.M.)",[1]; [18],72 (17) %
same,"% Inhibition, acid output (S.E.M.)",[1]; [18],92 (5) %
same,"% Inhibition, acid concentration (S.E.M.)",[1]; [19],80 (16) %
same,"% Inhibition, acid output (S.E.M.)",[1]; [19],82 (18) %
same,"% Inhibition, acid concentration (S.E.M.)",[1]; [20],80 (15) %
same,"% Inhibition, acid output (S.E.M.)",[1]; [20],80 (20) %
same,"% Inhibition, acid concentration (S.E.M.)",[1]; [21],67 (33) %
same,"% Inhibition, acid output (S.E.M.)",[1]; [21],71 (29) %
same,antisecretory effects,[1]; I.G. dose 10 g/Kg [sic] b.w.,pronounced antisecretory effects
same,duration of antisecretory effect,[1]; I.G. dose 10 g/Kg [sic] b.w.,at least 3 hours
same,duration of antisecretory effect compared with Compound B,[1]; I.G. dose 10 g/Kg [sic] b.w.,significantly longer than that seen with Compound B
same,inhibition of acid secretion,[2]; 50 to 100 μg/kg I.V.,"at best, intermittent, slight to moderate inhibition of acid secretion of short duration"
same,inhibition of acid secretion,[2]; oral and intrapouch dose of 10 to 50 μg/kg,"at best, intermittent, slight to moderate inhibition of acid secretion of short duration"
same,activity,[3]; 100 μg/kg p.o.,potential for significant activity
same,dogs with 50% or better acid reduction for more than two hours,"[3]; 100 μg/kg p.o., six dogs",Three of the six dogs
same,acid reduction,"[3]; 100 μg/kg p.o., in three of the six dogs, for more than two hours post dosage",≥ 50%
same,duration of 50% or better acid reduction,"[3]; 100 μg/kg p.o., three of the six dogs",more than two hours
same,activity compared with 500 μg/kg level,[3]; 250 μg/kg oral,almost as good as that found at the 500 μ/kg level
same,antisecretory activity,[3]; 500 μg/kg oral,marked antisecretory activity of long duration
same,duration of >60% inhibition of acid output,[3]; 500 μg/kg oral,> 9 h
same,start of >60% inhibition of acid output after administration,[3]; 500 μg/kg oral,45 min
same,inhibition of acid output,"[3]; 500 μg/kg oral, beginning 45 minutes after administration, longer than 9 hours, mean=0.38 mEq/15 minutes",> 60%
same,reduction of the acid concentration from control values,"[3]; 500 μg/kg oral, constant between 4 and 5 3/4 hours post drug, control mean=136 mg/L as printed",≥ 50%
same,maximum pH of gastric juice,"[3]; 500 μg/kg oral, six hours post drug, from a control average of 1.0",2.0
same,blood lost after Compound A in combination with aspirin,[4]; Compound A 1.25 μg/kg + aspirin 100 mg/kg,178 µL
same,blood lost after Compound A in combination with aspirin,[4]; Compound A 2.5 μg/kg + aspirin 100 mg/kg,56 µL
same,prevention of aspirin-induced microbleeding,[4]; [22],complete prevention
same,blood lost after Compound A in combination with aspirin,[4]; [22],0 µL
same,effect on aspirin-induced bleeding,"[4]; Compound A 1.25, 2.5 or 10 μg/kg + aspirin 100 mg/kg",reduced or prevented bleeding in a dose-dependent manner
"CCCCC(C)(C)[C@H](O)/C=C/C1[C@H](C)CC(=O)[C@@H]1C/C=C\CCCC(=O)O (stereo in doubt) [Compound B, (8R,11R,12S,15R,5Z,13E)-15-hydroxy-11,16,16-trimethyl-9-oxoprosta-5,13-dien-1-oic acid, reference compound]","% Inhibition, acid concentration (S.E.M.)",[1]; [5],62 (5) %
same,"% Inhibition, acid output (S.E.M.)",[1]; [5],69 (3) %
same,"% Inhibition, acid concentration (S.E.M.)",[1]; [6],67 (6) %
same,"% Inhibition, acid output (S.E.M.)",[1]; [6],72 (2) %
same,"% Inhibition, acid concentration (S.E.M.)",[1]; [7],58 (6) %
same,"% Inhibition, acid output (S.E.M.)",[1]; [7],68 (6) %
same,"% Inhibition, acid concentration (S.E.M.)",[1]; [8],59 (5) %
same,"% Inhibition, acid output (S.E.M.)",[1]; [8],73 (2) %
same,"% Inhibition, acid concentration (S.E.M.)",[1]; [9],43 (5) %
same,"% Inhibition, acid output (S.E.M.)",[1]; [9],78 (7) %
same,"% Inhibition, acid concentration (S.E.M.)",[1]; [10],45 (5) %
same,"% Inhibition, acid output (S.E.M.)",[1]; [10],71 (3) %
same,"% Inhibition, acid concentration (S.E.M.)",[1]; [11],44 (6) %
same,"% Inhibition, acid output (S.E.M.)",[1]; [11],77 (7) %
same,"% Inhibition, acid concentration (S.E.M.)",[1]; [12],25 (13) %
same,"% Inhibition, acid output (S.E.M.)",[1]; [12],57 (17) %

# Reference: US4325970A, “15-Acetyl-prostaglandins” (Hoffmann-La Roche Inc., priority 1980, dated 1982)
